In ChEMBL document CHEMBL5463729, “Data for DCP probe BAY 1753011” (2023):
Activity calls are given as the source filed them. The rule behind the calls is not given here.

Legend:
[1] = target: SRSF protein kinase 3 (Homo sapiens) (UniProt Q9UPE1); assay: Inhibition of MSSK1(h) at 10.0 µM in the Eurofins Kinase panel; details: Compound concentration 10.0 uM
[2] = target: Serine/threonine-protein kinase SIK2 (Homo sapiens) (UniProt Q9H0K1); assay: Inhibition of SIK2(h) at 10.0 µM in the Eurofins Kinase panel; details: Compound concentration 10.0 uM
Vasopressin V1a receptor [3] = target: T1, Vasopressin V1a receptor (Homo sapiens, UniProt P37288)
[4] = target: Casein kinase II subunit alpha' (Homo sapiens) (UniProt P19784); assay: Inhibition of CK2alpha2(h) at 10.0 µM in the Eurofins Kinase panel; details: Compound concentration 10.0 uM
[5] = target: Serine/threonine-protein kinase WNK3 (Homo sapiens) (UniProt Q9BYP7); assay: Inhibition of WNK3(h) at 10.0 µM in the Eurofins Kinase panel; details: Compound concentration 10.0 uM
Sequence of Serine/threonine-protein kinase WNK3 (Homo sapiens) (Q9BYP7 whole entry): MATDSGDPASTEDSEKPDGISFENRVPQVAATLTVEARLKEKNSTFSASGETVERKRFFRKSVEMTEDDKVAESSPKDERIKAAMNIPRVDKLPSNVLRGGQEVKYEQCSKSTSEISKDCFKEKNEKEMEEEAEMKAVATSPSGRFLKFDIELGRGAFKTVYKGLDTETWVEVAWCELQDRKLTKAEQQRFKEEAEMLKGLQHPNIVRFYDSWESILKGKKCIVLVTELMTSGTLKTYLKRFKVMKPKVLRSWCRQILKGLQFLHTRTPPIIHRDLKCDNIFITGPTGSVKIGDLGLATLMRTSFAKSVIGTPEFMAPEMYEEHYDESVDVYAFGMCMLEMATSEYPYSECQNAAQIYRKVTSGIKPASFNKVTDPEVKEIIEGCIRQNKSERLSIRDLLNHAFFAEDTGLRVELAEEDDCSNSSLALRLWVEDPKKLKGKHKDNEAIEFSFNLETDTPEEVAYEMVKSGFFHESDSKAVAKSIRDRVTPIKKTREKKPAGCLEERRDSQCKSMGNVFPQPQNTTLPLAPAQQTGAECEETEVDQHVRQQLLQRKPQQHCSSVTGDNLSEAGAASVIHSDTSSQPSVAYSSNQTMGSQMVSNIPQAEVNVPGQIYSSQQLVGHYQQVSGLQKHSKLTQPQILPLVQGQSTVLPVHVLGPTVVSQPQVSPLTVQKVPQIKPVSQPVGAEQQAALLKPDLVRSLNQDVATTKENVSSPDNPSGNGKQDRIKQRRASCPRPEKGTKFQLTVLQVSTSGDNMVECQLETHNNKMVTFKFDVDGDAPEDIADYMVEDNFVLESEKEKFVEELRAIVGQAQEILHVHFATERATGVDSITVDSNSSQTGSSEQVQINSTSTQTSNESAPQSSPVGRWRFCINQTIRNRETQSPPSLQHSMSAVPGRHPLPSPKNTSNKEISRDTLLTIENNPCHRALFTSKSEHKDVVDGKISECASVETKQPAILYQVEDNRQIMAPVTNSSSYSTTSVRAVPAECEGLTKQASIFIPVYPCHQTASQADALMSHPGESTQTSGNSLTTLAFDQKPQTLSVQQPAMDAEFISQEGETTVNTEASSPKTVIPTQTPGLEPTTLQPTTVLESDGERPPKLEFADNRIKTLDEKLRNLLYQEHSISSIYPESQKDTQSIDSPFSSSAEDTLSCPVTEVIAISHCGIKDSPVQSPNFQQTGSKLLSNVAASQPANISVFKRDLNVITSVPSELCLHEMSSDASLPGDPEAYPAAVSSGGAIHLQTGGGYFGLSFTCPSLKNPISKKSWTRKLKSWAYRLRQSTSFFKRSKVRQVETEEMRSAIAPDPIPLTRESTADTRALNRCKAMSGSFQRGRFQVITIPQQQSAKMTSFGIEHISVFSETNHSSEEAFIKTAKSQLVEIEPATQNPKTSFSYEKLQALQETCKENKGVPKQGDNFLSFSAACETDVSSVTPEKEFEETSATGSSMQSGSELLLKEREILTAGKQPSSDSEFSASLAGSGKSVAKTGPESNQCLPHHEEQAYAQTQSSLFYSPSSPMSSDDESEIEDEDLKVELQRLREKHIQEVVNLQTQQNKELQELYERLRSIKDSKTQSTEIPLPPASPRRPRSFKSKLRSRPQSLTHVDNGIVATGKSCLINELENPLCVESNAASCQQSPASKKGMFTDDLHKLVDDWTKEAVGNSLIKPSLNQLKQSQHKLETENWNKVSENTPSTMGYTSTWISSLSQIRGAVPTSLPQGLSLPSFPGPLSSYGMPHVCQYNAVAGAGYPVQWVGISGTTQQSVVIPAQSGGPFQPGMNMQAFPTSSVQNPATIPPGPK

[6] = target: Megakaryocyte-associated tyrosine-protein kinase (Homo sapiens) (UniProt P42679); assay: Inhibition of MATK(h) at 10.0 µM in the Eurofins Kinase panel; details: Compound concentration 10.0 uM
[7] = target: T2, Vasopressin V1b receptor (Homo sapiens) (UniProt P47901); assay: Inhibition of Vasopressin V1B at 10 µM in the Eurofins-Panlabs radioligand binding assay (Eurofins_assay_287560); design: ligand concentration 1 nM
T2 sequence (whole entry): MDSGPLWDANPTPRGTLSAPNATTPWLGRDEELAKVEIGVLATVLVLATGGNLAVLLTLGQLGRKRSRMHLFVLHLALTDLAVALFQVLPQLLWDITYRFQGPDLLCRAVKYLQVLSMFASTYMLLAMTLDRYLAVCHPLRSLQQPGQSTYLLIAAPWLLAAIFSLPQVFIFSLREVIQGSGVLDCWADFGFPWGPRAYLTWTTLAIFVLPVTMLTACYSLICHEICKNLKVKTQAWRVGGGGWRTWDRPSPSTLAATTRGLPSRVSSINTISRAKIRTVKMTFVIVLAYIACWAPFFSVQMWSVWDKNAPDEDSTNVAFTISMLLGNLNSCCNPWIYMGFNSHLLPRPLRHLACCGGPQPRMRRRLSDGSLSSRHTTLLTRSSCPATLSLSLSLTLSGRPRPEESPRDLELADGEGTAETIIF

[8] = target: D(2) dopamine receptor (Homo sapiens) (UniProt P14416); details: Compound concentration 10.0 uM
Sequence of D(2) dopamine receptor (Homo sapiens) (P14416 whole entry): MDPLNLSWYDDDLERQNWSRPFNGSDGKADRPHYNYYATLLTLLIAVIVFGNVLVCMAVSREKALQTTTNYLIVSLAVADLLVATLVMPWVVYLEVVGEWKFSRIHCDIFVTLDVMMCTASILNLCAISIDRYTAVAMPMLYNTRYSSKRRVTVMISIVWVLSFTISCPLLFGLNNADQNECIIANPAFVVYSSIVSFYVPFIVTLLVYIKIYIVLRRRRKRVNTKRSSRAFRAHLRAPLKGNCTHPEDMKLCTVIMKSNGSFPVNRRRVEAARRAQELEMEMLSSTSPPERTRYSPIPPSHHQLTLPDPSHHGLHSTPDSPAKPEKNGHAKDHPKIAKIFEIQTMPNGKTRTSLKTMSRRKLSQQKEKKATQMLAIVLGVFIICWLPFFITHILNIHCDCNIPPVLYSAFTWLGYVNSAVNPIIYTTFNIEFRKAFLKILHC

[9] = target: Ephrin type-A receptor 3 (Homo sapiens) (UniProt P29320); assay: Inhibition of EphA3(h) at 10.0 µM in the Eurofins Kinase panel; details: Compound concentration 10.0 uM
[10] = target: Serine/threonine-protein kinase LATS2 (Homo sapiens) (UniProt Q9NRM7); assay: Inhibition of LATS2(h) at 10.0 µM in the Eurofins Kinase panel; details: Compound concentration 10.0 uM
Vasopressin V1a receptor [11] = target: T1, Vasopressin V1a receptor; assay: Inhibition of Vasopressin V1A at 10.0 µM in the Eurofins-Panlabs selectivity screen
[12] = target: D(2) dopamine receptor (Homo sapiens) (UniProt P14416); details: Compound concentration 10.0 uM; remark: listed apart in the source
[13] = target: ALK tyrosine kinase receptor (Homo sapiens) (UniProt Q9UM73); assay: Inhibition of ALK(h) at 10.0 µM in the Eurofins Kinase panel; details: Compound concentration 10.0 uM
Sequence of ALK tyrosine kinase receptor (Homo sapiens) (Q9UM73 19-1620 limits assumed): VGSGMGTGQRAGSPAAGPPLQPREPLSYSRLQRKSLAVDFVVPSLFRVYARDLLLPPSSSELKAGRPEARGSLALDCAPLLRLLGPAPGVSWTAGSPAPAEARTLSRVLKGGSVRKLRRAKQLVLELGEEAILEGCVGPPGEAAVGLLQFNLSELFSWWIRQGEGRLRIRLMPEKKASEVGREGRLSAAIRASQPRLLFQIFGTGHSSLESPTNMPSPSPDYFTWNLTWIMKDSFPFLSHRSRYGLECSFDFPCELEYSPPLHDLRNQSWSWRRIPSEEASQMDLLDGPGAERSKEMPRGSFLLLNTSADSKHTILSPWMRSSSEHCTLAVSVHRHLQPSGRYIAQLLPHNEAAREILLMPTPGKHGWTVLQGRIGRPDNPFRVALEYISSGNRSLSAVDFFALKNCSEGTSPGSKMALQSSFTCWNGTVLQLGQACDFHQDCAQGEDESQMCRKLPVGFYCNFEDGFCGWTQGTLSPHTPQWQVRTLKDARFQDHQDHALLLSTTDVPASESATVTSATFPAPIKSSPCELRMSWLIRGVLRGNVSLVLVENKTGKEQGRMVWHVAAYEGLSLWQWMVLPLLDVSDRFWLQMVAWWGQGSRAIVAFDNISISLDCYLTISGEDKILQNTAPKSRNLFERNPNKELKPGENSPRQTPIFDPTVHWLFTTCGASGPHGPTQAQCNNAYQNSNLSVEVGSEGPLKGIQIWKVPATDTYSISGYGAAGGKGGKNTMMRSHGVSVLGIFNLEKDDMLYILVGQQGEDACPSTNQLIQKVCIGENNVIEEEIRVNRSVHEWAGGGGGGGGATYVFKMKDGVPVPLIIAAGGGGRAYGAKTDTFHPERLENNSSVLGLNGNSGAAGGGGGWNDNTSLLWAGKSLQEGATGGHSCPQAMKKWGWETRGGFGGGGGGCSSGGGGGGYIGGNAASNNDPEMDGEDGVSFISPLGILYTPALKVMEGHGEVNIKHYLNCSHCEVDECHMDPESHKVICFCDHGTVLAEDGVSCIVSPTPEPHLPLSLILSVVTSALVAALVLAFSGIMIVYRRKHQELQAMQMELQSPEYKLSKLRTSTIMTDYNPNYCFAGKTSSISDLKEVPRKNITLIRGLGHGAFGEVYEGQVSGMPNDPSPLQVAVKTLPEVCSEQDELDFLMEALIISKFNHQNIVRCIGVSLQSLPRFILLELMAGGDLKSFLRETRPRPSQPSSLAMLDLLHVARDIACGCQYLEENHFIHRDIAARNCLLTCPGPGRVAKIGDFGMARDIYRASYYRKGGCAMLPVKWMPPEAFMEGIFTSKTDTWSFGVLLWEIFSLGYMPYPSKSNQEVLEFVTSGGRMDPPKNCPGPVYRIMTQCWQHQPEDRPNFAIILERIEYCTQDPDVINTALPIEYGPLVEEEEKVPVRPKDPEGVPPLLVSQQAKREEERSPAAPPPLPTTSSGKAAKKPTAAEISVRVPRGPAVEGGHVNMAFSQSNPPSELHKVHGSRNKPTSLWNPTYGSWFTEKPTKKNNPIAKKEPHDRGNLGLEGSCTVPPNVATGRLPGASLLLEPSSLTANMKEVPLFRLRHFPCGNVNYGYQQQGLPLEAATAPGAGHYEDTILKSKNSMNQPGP

[14] = target: Protein-tyrosine kinase 2-beta (Homo sapiens) (UniProt Q14289); assay: Inhibition of Pyk2(h) at 10.0 µM in the Eurofins Kinase panel; details: Compound concentration 10.0 uM
[15] = target: Dual specificity tyrosine-phosphorylation-regulated kinase 3 (Homo sapiens) (UniProt O43781); assay: Inhibition of DYRK3(h) at 10.0 µM in the Eurofins Kinase panel; details: Compound concentration 10.0 uM
[16] = target: TGF-beta receptor type-2 (Homo sapiens) (UniProt P37173); assay: Inhibition of TGFBR2(h) at 10.0 µM in the Eurofins Kinase panel; details: Compound concentration 10.0 uM
[17] = target: Dual specificity tyrosine-phosphorylation-regulated kinase 1A (Homo sapiens) (UniProt Q13627); assay: Inhibition of DYRK1A(h) at 10.0 µM in the Eurofins Kinase panel; details: Compound concentration 10.0 uM
[18] = target: Eukaryotic translation initiation factor 2-alpha kinase 1 (Homo sapiens) (UniProt Q9BQI3); assay: Inhibition of HRI(h) at 10.0 µM in the Eurofins Kinase panel; details: Compound concentration 10.0 uM
[19] = target: Phosphatidylinositol 5-phosphate 4-kinase type-2 alpha (Homo sapiens) (UniProt P48426); assay: Inhibition of PIP4K2a(h) at 10.0 µM in the Eurofins Kinase panel; details: Compound concentration 10.0 uM
[20] = target: Focal adhesion kinase 1 (Homo sapiens) (UniProt Q05397); assay: Inhibition of FAK(h) at 10.0 µM in the Eurofins Kinase panel; details: Compound concentration 10.0 uM
Sequence of Focal adhesion kinase 1 (Homo sapiens) (Q05397 2-1052 limits assumed): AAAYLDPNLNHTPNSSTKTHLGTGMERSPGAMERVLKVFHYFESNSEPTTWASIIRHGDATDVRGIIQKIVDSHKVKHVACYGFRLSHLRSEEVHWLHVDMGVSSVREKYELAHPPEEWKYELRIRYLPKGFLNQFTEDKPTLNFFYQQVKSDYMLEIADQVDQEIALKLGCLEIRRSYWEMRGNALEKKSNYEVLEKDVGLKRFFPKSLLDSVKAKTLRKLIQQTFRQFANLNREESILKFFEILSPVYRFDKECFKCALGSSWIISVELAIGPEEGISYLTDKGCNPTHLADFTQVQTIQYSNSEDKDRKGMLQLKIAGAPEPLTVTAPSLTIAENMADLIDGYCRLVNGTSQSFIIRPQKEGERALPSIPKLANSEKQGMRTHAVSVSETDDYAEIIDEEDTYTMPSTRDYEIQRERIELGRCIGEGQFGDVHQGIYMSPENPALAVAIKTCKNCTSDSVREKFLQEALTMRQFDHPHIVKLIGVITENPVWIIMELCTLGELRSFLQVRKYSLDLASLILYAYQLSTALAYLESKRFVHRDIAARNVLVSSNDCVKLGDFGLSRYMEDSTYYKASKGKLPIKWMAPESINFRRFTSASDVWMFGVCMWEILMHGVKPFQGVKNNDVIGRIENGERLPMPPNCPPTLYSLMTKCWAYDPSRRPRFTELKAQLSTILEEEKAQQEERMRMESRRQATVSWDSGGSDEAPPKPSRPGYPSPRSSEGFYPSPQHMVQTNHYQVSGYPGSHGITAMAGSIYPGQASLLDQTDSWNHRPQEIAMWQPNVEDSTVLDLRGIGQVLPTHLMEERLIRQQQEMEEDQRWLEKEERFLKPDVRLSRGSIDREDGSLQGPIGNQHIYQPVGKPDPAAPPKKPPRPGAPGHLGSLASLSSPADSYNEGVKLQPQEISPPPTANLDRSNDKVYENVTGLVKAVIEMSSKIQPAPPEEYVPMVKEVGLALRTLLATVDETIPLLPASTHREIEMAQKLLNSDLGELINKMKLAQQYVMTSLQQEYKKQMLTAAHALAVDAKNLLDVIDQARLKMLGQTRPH

[21] = target: Serine/threonine-protein kinase Nek6 (Homo sapiens) (UniProt Q9HC98); assay: Inhibition of NEK6(h) at 10.0 µM in the Eurofins Kinase panel; details: Compound concentration 10.0 uM
[22] = target: T3, Muscarinic acetylcholine receptor M2 (Homo sapiens) (UniProt P08172); details: Compound concentration 10.0 uM
T3 sequence (whole entry): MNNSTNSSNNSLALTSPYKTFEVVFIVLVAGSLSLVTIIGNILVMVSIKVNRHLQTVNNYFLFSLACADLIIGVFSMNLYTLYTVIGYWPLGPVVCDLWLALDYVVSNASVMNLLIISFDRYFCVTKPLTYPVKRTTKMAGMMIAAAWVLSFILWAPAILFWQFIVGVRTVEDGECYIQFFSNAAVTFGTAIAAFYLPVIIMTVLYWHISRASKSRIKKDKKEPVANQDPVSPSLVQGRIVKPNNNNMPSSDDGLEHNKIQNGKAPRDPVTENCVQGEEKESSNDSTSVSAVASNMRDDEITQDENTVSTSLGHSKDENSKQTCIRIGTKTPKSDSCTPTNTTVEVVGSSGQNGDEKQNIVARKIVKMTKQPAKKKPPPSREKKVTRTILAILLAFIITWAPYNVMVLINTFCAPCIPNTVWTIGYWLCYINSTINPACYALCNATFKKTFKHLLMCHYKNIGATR

[23] = target: Myosin light chain kinase 2, skeletal/cardiac muscle (Homo sapiens) (UniProt Q9H1R3); assay: Inhibition of MYLK2(h) at 10.0 µM in the Eurofins Kinase panel; details: Compound concentration 10.0 uM
[24] = target: Serine/threonine-protein kinase Nek5 (Homo sapiens) (UniProt Q6P3R8); assay: Inhibition of NEK5(h) at 10.0 µM in the Eurofins Kinase panel; details: Compound concentration 10.0 uM
[25] = target: Serine/threonine-protein kinase 32B (Homo sapiens) (UniProt Q9NY57); assay: Inhibition of STK32B(h) at 10.0 µM in the Eurofins Kinase panel; details: Compound concentration 10.0 uM
[26] = target: Tribbles homolog 2 (Homo sapiens) (UniProt Q92519); assay: Inhibition of TRB2(h) at 10.0 µM in the Eurofins Kinase panel; details: Compound concentration 10.0 uM

Row | Structure (SMILES) | inhibition [1] | inhibition [2] | inhibition [4] | inhibition [5] | inhibition [6] | inhibition ([7]; Compound concentration 10.0 uM) | inhibition [8] | inhibition [9] | inhibition [10] | Ki (Vasopressin V1a receptor [11]) | inhibition [12] | inhibition [13] | inhibition [14] | inhibition [15] | inhibition [16] | inhibition [17] | inhibition [18] | inhibition [19] | inhibition [20] | inhibition [21] | also measured
1 | O=c1n(Cc2cncn2-c2cccc(Cl)c2)nc(-c2ccc(Cl)cc2)n1C[C@H](O)C(F)(F)F | 9.31% | 1.82% | 6.42% | -2.58% | 4.16% | 7% | -3% | 1.3% | 5.08% | > 10 µM (not active) | 16% | -8.94% | 3.57% | -6.33% | 8.26% | 3.54% | -5.05% | -2.76% | -5.35% | 5.32% | inhibition (Vasopressin V1a receptor [3]; Compound concentration 10.0 uM): 28%; inhibition [22]: -9.34%; inhibition [23]: 3.49%; inhibition [24]: 8.71%; inhibition [25]: -7.15%; inhibition [26]: 3.48%
2 | C[C@H](O)c1nc(Cn2nc(-c3ccc(Cl)cc3)n(C[C@H](O)C(F)(F)F)c2=O)nn1-c1cccc(Cl)c1 [PECAVAPTAN] | -9.95% | -3.07% | -3.46% | -3.44% | 0.84% | 43% | 14% | -7.49% | 3.15% | 0.0005 µM (active) | 14% | -3.75% | -1.95% | -1.79% | 8.85% | 8.95% | 6.64% | -0.83% | -3.02% | 4.93% | inhibition (Vasopressin V1a receptor [3]; Compound concentration 0.01 uM): 65%; inhibition ([7]; Compound concentration 0.001 uM): 6%; inhibition ([7]; Compound concentration 0.01 uM): -6%; inhibition ([7]; Compound concentration 0.1 uM): -5%; inhibition ([7]; Compound concentration 1.0 uM): 5%; inhibition [22]: 4.65%; inhibition [23]: 3.01%; inhibition [24]: 6.17%; inhibition [25]: -0.99%; inhibition [26]: -2.41%
